From patent US11667652B2, “MCL1 inhibitors” (Gilead Sciences, Inc., priority 2019, dated 2023)
Where two headings read alike, the source gives them in different places.

Columns and labels:
MCL1/Bim = MCL1/Bim (Homo sapiens (Human), UniProt Q07820); experiment: MCL1/Bim Binding AlphaLISA Assay; settings: recombinant human 6xHis-MCL1 (171-327), biotinylated Bim peptide (51-76)
Procedure, shortened: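 AlphaLISA with 0.0625 nM human 6×His-MCL1 (171-327) and 0.0625 nM biotinylated Bim (51-76) peptide in 20 mM Hepes pH 7.5, 150 mM NaCl, 0.002% Brij 35, 1 mM DTT, 0.01% BSA. Compound preincubated with MCL1 1 h, Bim added 2 h, then acceptor and donor beads 1 h each; % inhibition versus DMSO and no-protein/peptide controls.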

SKBR3 cells = experiment: SKBR3 Cell Viability Assay; format: cell-based; settings: CellTiter Glo, read-out: MCL1 CV SKBR3 EC50
Procedure, shortened: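 SKBR3 cells (6,000/well, McCoy's 5A + 10% FBS) were added onto pre-spotted serial compound dilutions and incubated 72 h at 37° C, 5% CO2. Viability was read by CellTiter-Glo luminescence, with % inhibition normalised to DMSO (negative) and 10 μM puromycin (positive).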

[1] = Homo sapiens, SK-BR-3, 72 hours

MCL1/Bim, sequence (Q07820 171-327): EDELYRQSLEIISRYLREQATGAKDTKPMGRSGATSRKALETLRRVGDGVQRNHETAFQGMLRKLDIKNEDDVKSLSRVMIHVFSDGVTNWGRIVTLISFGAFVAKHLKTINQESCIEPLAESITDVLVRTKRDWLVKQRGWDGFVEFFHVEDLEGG

SMILES	IC50 (MCL1/Bim)	EC50 (SKBR3 cells; 72 hours)	EC50 (SKBR3 cells; [1])
COc1nn(C)cc1C(=O)N[S@@]1(=O)=NC(=O)c2ccc3c(c2)N(C[C@@H]2CC[C@H]2[C@@H](OC)CC2CC(CCN(C)C)OC2[C@H](C)C1)C[C@@]1(CCCc2cc(Cl)ccc21)CO3 (stereo partly drawn) [Example 143]	0.037 nM	37.5 nM	–
COc1nn(C)cc1C(=O)N[S@@]1(=O)=NC(=O)c2ccc3c(c2)N(C[C@@H]2CC[C@H]2[C@@H](OC)C[C@@H]2[C@H](OC[C@H]2C)[C@H](C)C1)C[C@@]1(CCCc2cc(Cl)ccc21)CO3 [Example 145]	0.189 nM	178 nM	–
COc1nn(C)cc1C(=O)N[S@@]1(=O)=NC(=O)c2ccc3c(c2)N(C[C@@H]2CC[C@H]2[C@@H](OC)C[C@@H]2[C@H](OC[C@H]2C)[C@H](C)C1)C[C@@]1(CCCc2ccccc21)CO3 [Example 147]	0.394 nM	532 nM	–
COc1nn(C)cc1C(=O)N[S@@]1(=O)=NC(=O)c2ccc3c(c2)N(C[C@@H]2CC[C@H]2[C@@H](OC)C[C@@H]2[C@H](OC[C@@H]2C)[C@H](C)C1)C[C@@]1(CCCc2ccccc21)CO3 [Example 148]	0.426 nM	1720 nM	–
COc1nn(C)cc1C(=O)N[S@@]1(=O)=NC(=O)c2ccc3c(c2)N(C[C@@H]2CC[C@H]2[C@@H](OC)/C=C/[C@@H]2OCC[C@@H]1[C@H]2C)C[C@@]1(CCCc2cc(Cl)ccc21)CC3 [Example 149]	0.378 nM	–	287 nM
COc1nn(C)cc1C(=O)N[S@@]1(=O)=NC(=O)c2ccc3c(c2)N(C[C@@H]2CC[C@H]2[C@H]2OC(=O)C[C@@H]2CC[C@H](C)C1)C[C@@]1(CCCc2cc(Cl)ccc21)CC3 [Example 151]	0.056 nM	–	422 nM
COc1nn(C)cc1C(=O)N[S@@]1(=O)=NC(=O)c2ccc3c(c2)N(C[C@@H]2CC[C@H]2[C@H]2O[C@H](CCN(C)C)C[C@@H]2CC[C@H](C)C1)C[C@@]1(CCCc2cc(Cl)ccc21)CO3 [Example 152]	0.027 nM	–	51.4 nM
COc1nn(C)cc1C(=O)N[S@@]1(=O)=NC(=O)c2ccc3c(c2)N(C[C@@H]2CC[C@H]2/C=C/[C@@H]2OCCO[C@@H]2[C@H](C)C1)C[C@@]1(CCCc2cc(Cl)ccc21)CO3 [Example 153]	0.189 nM	1000 nM	–
COc1nn(C)cc1C(=O)N[S@@]1(=O)=NC(=O)c2ccc3c(c2)N(C[C@@H]2CC[C@H]2/C=C/[C@H]2OCCO[C@@H]2[C@H](C)C1)C[C@@]1(CCCc2cc(Cl)ccc21)CO3 [Example 154]	0.321 nM	1470 nM	–
COc1nn(C)cc1C(=O)N[S@@]1(=O)=NC(=O)c2ccc3c(c2)N(C[C@@H]2CC[C@H]2[C@@H]2/C=C/[C@H](OCCCC(=O)O2)[C@H](C)C1)C[C@@]1(CCCc2cc(Cl)ccc21)CO3 [Example 156]	0.393 nM	368 nM	–
COc1nn(C)cc1C(=O)N[S@@]1(=O)=NC(=O)c2ccc3c(c2)N(C[C@@H]2CC[C@H]2[C@@H]2/C=C/[C@@H](OCCCC(=O)O2)[C@H](C)C1)C[C@@]1(CCCc2cc(Cl)ccc21)CO3 [Example 157]	0.366 nM	229 nM	–
CCO/C1=C/C[C@H](OC)[C@@H]2CC[C@H]2CN2C[C@@]3(CCCc4cc(Cl)ccc43)COc3ccc(cc32)C(=O)N=[S@](=O)(NC(=O)c2cn(C)nc2OC)[C@H](C)[C@H]1C [Example 158]	3.86 nM	1950 nM	–
COc1nn(C)cc1C(=O)N[S@@]1(=O)=NC(=O)c2ccc3c(c2)N(C[C@@H]2CC[C@H]2[C@@H](OC)C[C@H]2CCO[C@@H]2[C@H](C)[C@H]1C)C[C@@]1(CCCc2cc(Cl)ccc21)CO3 [Example 159]	0.689 nM	381 nM	–
COc1nn(C)cc1C(=O)N[S@@]1(=O)=NC(=O)c2ccc3c(c2)N(C[C@@H]2CC[C@H]2[C@@H](OC)C[C@H]2CCO[C@@H]2CC1)C[C@@]1(CCCc2cc(Cl)ccc21)CO3 [Example 160]	0.214 nM	–	331 nM

The remaining lines, values ahead:

IC50 (MCL1/Bim)	EC50 (SKBR3 cells; 72 hours)	EC50 (SKBR3 cells; [1])	SMILES
0.089 nM	–	33.8 nM	COc1nn(C)cc1C(=O)N[S@@]1(=O)=NC(=O)c2ccc3c(c2F)N(C[C@@H]2CC[C@H]2[C@@H](OC)/C=C/C[C@H](C)C1)C[C@@]1(CCCc2cc(Cl)ccc21)CO3 [Example 161]
0.053 nM	–	27.7 nM	COc1nn(C)cc1C(=O)N[S@@]1(=O)=NC(=O)c2ccc3c(c2F)N(C[C@@H]2CC[C@H]2C(OC)/C=C/[C@H](OC)[C@H](C)C1)C[C@@]1(CCCc2cc(Cl)ccc21)CO3 (stereo partly drawn) [Example 162]
0.105 nM	–	88.1 nM	CCn1cc(C(=O)N[S@@]2(=O)=NC(=O)c3ccc4c(c3)N(C[C@@H]3CC[C@H]3[C@@H](OC)/C=C/C[C@H](C)C2)C[C@]2(CO4)C[C@@H]3C[C@@H]3c3cc(Cl)ccc32)cn1 [Example 164]
0.18 nM	–	369 nM	CO[C@H]1/C=C/C[C@H](C)C[S@@](=O)(NC(=O)NCC2CC2)=NC(=O)c2ccc3c(c2)N(C[C@@H]2CC[C@H]21)C[C@]1(CO3)C[C@@H]2C[C@@H]2c2cc(Cl)ccc21 [Example 165]
0.171 nM	–	190 nM	CO[C@H]1/C=C/C[C@H](C)C[S@@](=O)(NC(=O)NC2CC2)=NC(=O)c2ccc3c(c2)N(C[C@@H]2CC[C@H]21)C[C@]1(CO3)C[C@@H]2C[C@@H]2c2cc(Cl)ccc21 [Example 166]
0.101 nM	–	46.3 nM	CO[C@H]1/C=C/C[C@H](C)C[S@@](=O)(NC(=O)c2cnn(C)c2)=NC(=O)c2ccc3c(c2)N(C[C@@H]2CC[C@H]21)C[C@]1(CO3)C[C@@H]2C[C@@H]2c2cc(Cl)ccc21 [Example 167]
0.233 nM	–	94 nM	CO[C@H]1/C=C/C[C@H](C)C[S@@](=O)(NC(=O)c2cc3n(c2)CCOC3)=NC(=O)c2ccc3c(c2)N(C[C@@H]2CC[C@H]21)C[C@]1(CO3)C[C@@H]2C[C@@H]2c2cc(Cl)ccc21 [Example 168]
0.048 nM	–	215 nM	CO[C@H]1/C=C/C[C@H](C)[C@@H](C)[S@@](=O)(NC(=O)COC2CCOCC2)=NC(=O)c2ccc3c(c2)N(C[C@@H]2CC[C@H]21)C[C@]1(CO3)C[C@@H]2C[C@@H]2c2cc(Cl)ccc21 [Example 169]
0.155 nM	–	113 nM	CCn1cc(C(=O)N[S@@]2(=O)=NC(=O)c3ccc4c(c3)N(C[C@@H]3CC[C@H]3[C@@H](OC)/C=C/C[C@H](C)[C@H]2C)C[C@]2(CO4)C[C@@H]3C[C@@H]3c3cc(Cl)ccc32)cn1 [Example 170]
0.605 nM	–	160 nM	CO[C@H]1/C=C/C[C@H](C)[C@@H](C)[S@@](=O)(NC(=O)c2cc3n(c2)CCOC3)=NC(=O)c2ccc3c(c2)N(C[C@@H]2CC[C@H]21)C[C@]1(CO3)C[C@@H]2C[C@@H]2c2cc(Cl)ccc21 [Example 172]
0.1 nM	–	310 nM	CO[C@H]1/C=C/CCC[S@@](=O)(NC(=O)c2cnn(C)c2)=NC(=O)c2ccc3c(c2)N(C[C@@H]2CC[C@H]21)C[C@]1(CO3)C[C@@H]2C[C@@H]2c2cc(Cl)ccc21 [Example 173]
0.25 nM	–	354 nM	CO[C@H]1/C=C/CCC[S@@](=O)(NC(=O)c2cc3n(c2)CCOC3)=NC(=O)c2ccc3c(c2)N(C[C@@H]2CC[C@H]21)C[C@]1(CO3)C[C@@H]2C[C@@H]2c2cc(Cl)ccc21 [Example 174]
0.24 nM	–	638 nM	CO[C@H]1/C=C/CCC[S@@](=O)(NC(=O)NC2CC2)=NC(=O)c2ccc3c(c2)N(C[C@@H]2CC[C@H]21)C[C@]1(CO3)C[C@@H]2C[C@@H]2c2cc(Cl)ccc21 [Example 175]
0.06 nM	–	72.5 nM	CO[C@H]1/C=C/C[C@H](C)C[S@@](=O)(NC(=O)c2cnn(C)c2)=NC(=O)c2ccc3c(c2)N(C[C@@H]2CC[C@H]21)C[C@]1(CO3)SCCc2cc(Cl)ccc21 [Example 176]
0.05 nM	–	25.9 nM	CCn1cc(C(=O)N[S@@]2(=O)=NC(=O)c3ccc4c(c3)N(C[C@@H]3CC[C@H]3[C@@H](OC)/C=C/C[C@H](C)C2)C[C@]2(CO4)SCCc3cc(Cl)ccc32)cn1 [Example 178]
0.07 nM	–	24.1 nM	CO[C@H]1/C=C/C[C@H](C)C[S@@](=O)(NC(=O)c2cc3n(c2)CCOC3)=NC(=O)c2ccc3c(c2)N(C[C@@H]2CC[C@H]21)C[C@]1(CO3)SCCc2cc(Cl)ccc21 [Example 179]
0.06 nM	–	24.9 nM	CO[C@H]1/C=C/C[C@H](C)[C@@H](C)[S@@](=O)(NC(=O)c2cnn(C)c2)=NC(=O)c2ccc3c(c2)N(C[C@@H]2CC[C@H]21)C[C@]1(CO3)SCCc2cc(Cl)ccc21 [Example 180]
0.27 nM	–	57 nM	CO[C@H]1/C=C/C[C@H](C)[C@@H](C)[S@@](=O)(NC(=O)c2cc3n(c2)CCOC3)=NC(=O)c2ccc3c(c2)N(C[C@@H]2CC[C@H]21)C[C@]1(CO3)SCCc2cc(Cl)ccc21 [Example 181]
0.24 nM	–	454 nM	CO[C@H]1/C=C/CCC[S@@](=O)(NC(=O)NC2CC2)=NC(=O)c2ccc3c(c2)N(C[C@@H]2CC[C@H]21)C[C@]1(CO3)SCCc2cc(Cl)ccc21 [Example 183]
